*1 amine or outer side, *2 acyl side, *3 side chain or, on linkers, in order; H or OH if unused. Where a SMILES comes first, the peptide text is derived from it. [ ]: non-standard residue; d: D form. The star is where a group is joined. Dolaproine = CO[C@@H]([C@@H]1CCCN1)[C@@H](C)C(=O)O; Dil = CC[C@H](C)[C@H](NC)[C@@H](CC(=O)O)OC; Met(O2) = CS(=O)(=O)CC[C@H](N)C(=O)O; PABC = O=C(OCc1ccc(N[*:1])cc1)[*:2]; X1 = C[C@@H](N*)[C@@H](O)c1ccccc1; tBuAla = CC(C)(C)C[C@H](N)C(=O)O; Cit = NC(=O)NCCC[C@H](N)C(=O)O; NMeV = CN[C@H](C(=O)O)C(C)C; Cbz = O=C(OCc1ccccc1)*
Experiments:
MDA-MB-231 cells = assay: MTS cell viability assay, MDA-MB-231; format: cell-based, human; details: TROP-2-positive MDA-MB-231 cells
Procedure: The BT-474 (ATCC HTB-20, RRID: CVCL_0179), MCF-7 (ATCC HTB-22, RRID: CVCL_0031), and MDA-MB-231 (ATCC HTB-26, RRID: CVCL_0062) breast cancer cell lines were cultured at 37 °C in a humidified incubator with 5% CO2. Cells were maintained in Dulbecco’s Modified Eagle Medium (DMEM; Gibco, Cat. No. 41965−039) supplemented with 10% fetal bovine serum (FBS; Gibco, Cat. No. A5256801), L-glutamine, sodium pyruvate, penicillin […], and streptomycin (0.1 mg/mL). All cell lines were routinely tested for mycoplasma contamination (every 12−16 weeks) using a PCR-based detection kit.
Cell viability was evaluated using the MTS assay (CellTiter 96 AQueous One Solution Cell Proliferation Assay, Promega, Cat. No. G358B) according to the manufacturer’s instructions. BT-474 cells were seeded at a density of 20,000 cells/well, while MCF-7 and MDA-MB-231 cells were seeded at 5,000 cells/well in 96-well plates and allowed to adhere overnight. Peptide prodrugs, free MMAE (used as a control), or ADCs were added in serial dilutions. For peptide prodrugs and MMAE, concentrations ranged from 0.001 to 10 μM; for ADCs, from 0.03 to 3 μM. […] Absorbance was measured at 490 nm. Background absorbance (blank wells) was subtracted from all readings, and cell viability was calculated as a percentage relative to untreated controls. […]

[1] = ADC stability in mouse serum (free MMAE by LC-MS/MS); format: in vitro ADME; details: anti-TROP-2 sacituzumab-based ADCs, up to 1 week, 37 °C
Procedure: Selected ADCs were incubated at 0.1 mg/mL in 100 μL of plasma samples for 24, 48, 72, and 168 h at 37 °C. The samples were then frozen at −80 °C and subjected to LC-MS/MS analysis. Stock solutions of MMAE and MMAE-d 8 standards were prepared in DMSO at a concentration of 10 mM and stored at −20 °C until use. Calibration solutions were prepared by diluting the stock solutions with methanol/ethanol (50:50, v/v). Mouse and human serum were purchased from Sigma-Aldrich. The concentration of MMAE in serum samples was determined based on the method described by Mak et al., with minor modifications. Briefly, 10 μL of serum was spiked with 5 μL of 25 nM MMAE-d 8 as an internal standard (IS), followed by the addition of 35 μL of ice-cold ethanol/methanol (50:50, v/v). The mixture was vortexed for 5 min and then incubated at − 20 °C for 30 min to precipitate proteins. The samples were subsequently centrifuged for 30 min at 20,000 × g and 4 °C. The supernatant was collected and subjected to LC-MS analysis. A Waters Acquity Premier UPLC system (Massachusetts, USA), consisting of a binary pump, thermostatic column holder, and refrigerated sample manager, was used for chromatographic separation. Separation was performed on an Acquity UPLC BEH C18 column (2.1 × 50 mm, 1.7 μm) using 0.1% formic acid in water as mobile phase A and 0.1% formic acid in methanol as mobile phase B. The column temperature and sample manager temperature were maintained at 45 and 15 °C, respectively. The injection volume was 1 μL, and the flow rate was 0.3 mL/min. The gradient started at 20% B, increased to 90% B over 3 min, and was held at 90% B for 2 min. Finally, the column was equilibrated back to 20% B for 1 min. The total run time was 6 min. MS analysis was performed using a Waters Xevo TQ-Absolute XR triple quadrupole mass spectrometer (Massachusetts, USA) equipped with an electrospray ionization interface. Samples were analyzed in positive multiple reaction monitoring (MRM) mode. […] MMAE and MMAE-d8 were detected based on their characteristic MRM transitions and retention times. […]

Cathepsin S [2] = target: T1, Cathepsin S (Homo sapiens, UniProt P25774); assay: Prodrug cleavage / MMAE release by LC-MS, cathepsin S; format: biochemical; details: prodrug 50 μM, pH 5.5, 37 °C, 0-120 min
T1 construct: made in house
T1 sequence (P25774 115-331): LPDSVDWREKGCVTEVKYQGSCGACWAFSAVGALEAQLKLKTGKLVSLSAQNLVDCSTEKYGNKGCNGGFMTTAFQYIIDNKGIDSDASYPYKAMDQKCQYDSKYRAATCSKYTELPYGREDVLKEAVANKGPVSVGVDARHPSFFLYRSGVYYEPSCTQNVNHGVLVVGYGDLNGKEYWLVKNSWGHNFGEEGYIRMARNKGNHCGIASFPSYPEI
Procedure: (§1) Cleavage assays were conducted at 37 °C in 1 mL reaction volumes using acetate buffer composed of 100 mM sodium acetate (pH 5.5), 100 mM NaCl, 1 mM EDTA, and 5 mM DTT. Buffers were prepared at room temperature and equilibrated before use. Prodrugs were initially dissolved in DMSO at a stock concentration of 10 mM, then diluted into the reaction buffer to a final concentration of 50 μM, maintaining a DMSO concentration below 0.5% (v/v). Reactions were initiated by the addition of recombinant cathepsin and carried out in glass LC-MS vials incubated at 37 °C. At specified time points (0, 5, 30, 60, and 120 min), aliquots were taken and directly injected into the LC-MS system without further processing. Quantification of MMAE release was based on absorbance at 220 nm. The area under the MMAE peak was integrated, and the amount of released MMAE was plotted as a function of time. Each time point was measured in triplicate, and results are presented as mean ± standard deviation (SD). A standard curve was prepared using free MMAE at concentrations of 1, 5, 10, 20, and 50 μM to enable accurate quantification of MMAE released from the prodrugs.

cathepsins B, L, and V = assay: Prodrug cleavage / MMAE release by LC-MS, other cathepsins; format: biochemical, human; details: prodrug 50 μM, pH 5.5, 37 °C
Procedure: as §1

Cathepsin S [3] = target: T1, Cathepsin S; assay: Second-order rate constants of inhibition (kobs/[I]), cathepsin S; format: biochemical; details: Figure 4D
Procedure: (§2) All kinetic studies were performed using an fMax fluorescence plate reader (Molecular Devices) in kinetic mode with 96- or 384-well plates. ACC fluorescence was monitored at excitation and emission wavelengths of 355 and 460 nm, respectively. Recombinant human cysteine cathepsins L, V, B, K, and S were expressed and purified as previously described. Prior to use, all cysteine cathepsins were titrated with E64 to normalize enzymatic activity. Assays for cathepsins were conducted in 100 mM sodium acetate buffer containing 10 mM NaCl and 10 mM DTT (pH 5.5). Breast cancer cell lysates (BT-474, MCF-7, MDA-MB-231) were prepared by culturing cells to confluence in the appropriate media, replacing media with PBS, and harvesting the cells using a cell scraper (without trypsin). The cells were pelleted by centrifugation (400 × g, 5 min), resuspended in PBS, and centrifuged again under the same conditions. After removal of the supernatant, the pellet was resuspended in cathepsin assay buffer (excluding DTT) and sonicated. Lysates were then clarified by centrifugation (12,000 × g, 5 min), and the supernatants were collected and stored at −80 °C until use. All enzymatic assays, including HyCoSuL library screening and kinetic analyses of synthetic substrates, inhibitors, probes and prodrugs, were conducted at 37 °C and repeated at least three times. Mean values are reported. Kinetic data were analyzed using GraphPad Prism software (version 10.4.1).
(§3) The second-order rate constants of inhibition (k obs/[I]) were determined for human recombinant cathepsins S, B, L, and V using their respective assay buffers. All measurements were performed under pseudo-first-order kinetic conditions, as previously described. Inhibitors or ABPs were serially diluted in assay buffer and transferred to a 96-well plate. Each well was supplemented with the fluorogenic substrate Cbz-Phe-Arg-AMC at a final concentration of 25 μM and preincubated for 15 min. In parallel, enzymes were preactivated in assay buffer for 15 min at room temperature. Following preincubation, the activated enzymes were added to the wells, and fluorescence was monitored immediately for 30 min. The k obs/[I] values (M^-1S^-1) were calculated from the progress curves and averaged from at least three independent experiments. Final inhibitor (or ABP) concentrations were maintained at a minimum of 5-fold excess relative to enzyme concentrations to ensure pseudo-first-order conditions. Results were analyzed in GraphPad Prism and are reported as mean ± standard deviation.

Cathepsin L = target: T2, Cathepsin L (Homo sapiens, UniProt P07711); assay: Second-order rate constants of inhibition (kobs/[I]), cathepsin L; format: biochemical; details: Figure 4D; Cy5- and BODIPY-labeled probes
T2 construct: made in house
T2 sequence (P07711 114-333): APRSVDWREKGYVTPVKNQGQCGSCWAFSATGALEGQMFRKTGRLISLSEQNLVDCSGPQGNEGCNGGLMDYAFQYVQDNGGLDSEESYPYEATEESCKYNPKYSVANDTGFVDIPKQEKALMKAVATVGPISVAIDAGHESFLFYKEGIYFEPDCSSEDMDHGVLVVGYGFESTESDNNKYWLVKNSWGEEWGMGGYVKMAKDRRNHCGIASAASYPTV
Procedure: as §2, §3

Cathepsin V = target: T3, Cathepsin V (Homo sapiens, UniProt O60911); assay: Second-order rate constants of inhibition (kobs/[I]), cathepsin V; format: biochemical; details: Figure 4D; Cy5- and BODIPY-labeled probes
T3 construct: made in house
T3 sequence (O60911 114-334): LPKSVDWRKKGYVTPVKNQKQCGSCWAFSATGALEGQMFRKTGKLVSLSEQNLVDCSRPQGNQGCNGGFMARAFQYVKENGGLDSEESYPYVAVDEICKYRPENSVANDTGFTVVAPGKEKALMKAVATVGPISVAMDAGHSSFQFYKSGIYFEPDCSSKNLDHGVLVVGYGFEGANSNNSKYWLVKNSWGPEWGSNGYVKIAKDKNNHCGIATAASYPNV
Procedure: as §2, §3

[4] = target: T4, active cathepsin S in MDA-MB-231 live cells (Homo sapiens, UniProt P25774); assay: Labeling of active cathepsin S in MDA-MB-231 live cells with Cy5 probes; format: cell-based; details: probe 1 μM, 0,5 to 24 h
T4 construct: endogenous in cells; host or cells: MDA-MB-231
T4 sequence (P25774 115-331): as the sequence (P25774 115-331) above
Procedure: (§4) 50,000 of MDA-MB-231 cells were seeded into 12-well plate and allowed to attach overnight. The next day, OG-233 and OG-234 probes (1 μM final concentration) were added to the cells and incubated for various times (from 0,5 h up to 24 h). Control cells were preincubated with cathepsin S inhibitors (JN1, JN4, JN7) at 25 μM for 2 h, and then incubated with OG-233 or OG-234 probes for 24 h. Next, cells were harvested and prepared for SDS-PAGE analysis as described in the above section. Electrophoresis was run for 25 min (4−12% Bis-Tris Plus 10-well gel, 200 V). Next, proteins were transferred onto the membrane (0.2 μm nitrocellulose membrane, 10 V, 60 min) and Ponceau S was used to verify equal loading and transfer. Membranes were then blocked with 5% BSA in TBS-T buffer for 1 h at RT. Membranes were next incubated anticathepsin S antibody (1:1,000, overnight, 4 °C), and the next day with a secondary antibody (IRDye 800CW, donkey anti-Goat) for 30 min at RT, and scanned at 680 and 800 nm using the Sapphire biomolecular imager (Azure Biosystems) to detect the Cy5 probes and cathepsin S. All images were analyzed with Image Studio software.

Cathepsin B [5] = target: T5, Cathepsin B (Homo sapiens, UniProt P07858); assay: Second-order rate constants of inhibition (kobs/[I]), cathepsin B; format: biochemical; set-up: made in house; details: Figure 4D; Cy5- and BODIPY-labeled probes
Procedure: as §2, §3

Cathepsin B [6] = target: T5, Cathepsin B; assay: Labeling of cathepsin B in MDA-MB-231 live cells with Cy5 probes; format: cell-based; set-up: endogenous in cells; host or cells: MDA-MB-231; details: cellular environments; probe labeling
Procedure: as §4

Compound | cytotoxicity of sacituzumab (anti-TROP-2) ADCs (MDA-MB-231 cells) | payload release [1] | cleavage / free MMAE release by cathepsin S (Cathepsin S [2]) | cleavage / free MMAE release by other cathepsins (cathepsins B, L, and V) | further results
313 anti-TROP-2 ADC: sacituzumab (anti-TROP-2) ADC with Phe(F5)-Cit-Lys(2ClZ)-Glu(Me) linker, PABC spacer and MMAE payload | moderate toxicity | approximately 6% |  |  | 
314 anti-TROP-2 ADC: sacituzumab (anti-TROP-2) ADC with Met(O2)-Cit-NptGly-Glu(Me) linker, PABC spacer and MMAE payload | markedly more potent | approximately 6% |  |  | 
CC[C@H](C)[C@@H]([C@@H](CC(=O)N1CCC[C@H]1[C@H](OC)[C@@H](C)C(=O)N[C@H](C)[C@@H](O)c1ccccc1)OC)N(C)C(=O)[C@@H](NC(=O)[C@H](C(C)C)N(C)C(=O)OCc1ccc(NC(=O)[C@H](CCCNC(N)=O)NC(=O)[C@@H](NC(=O)OCc2ccccc2)C(C)C)cc1)C(C)C [compound 300, Cbz-Val-Cit-PABC-MMAE, reference compound] (Cbz-V[Cit][PABC][NMeV]V[Dil][Dolaproine]-X1; N-terminus and C-terminus assumed) |  |  | efficiently cleaved by cathepsins S, B, L, and V | efficiently cleaved by cathepsins S, B, L, and V | 
CC[C@H](C)[C@@H]([C@@H](CC(=O)N1CCC[C@H]1[C@H](OC)[C@@H](C)C(=O)N[C@H](C)[C@@H](O)c1ccccc1)OC)N(C)C(=O)[C@@H](NC(=O)[C@H](C(C)C)N(C)C(=O)OCc1ccc(NC(=O)[C@H](CCC(=O)OC)NC(=O)[C@H](CC(C)(C)C)NC(=O)[C@H](CCCNC(N)=O)NC(=O)[C@H](CCS(C)(=O)=O)NC(C)=O)cc1)C(C)C [compound 314, Ac-Met(O2)-Cit-NptGly-Glu(Me)-PABC-MMAE] (Ac-[Met(O2)][Cit][tBuAla]E(OMe)[PABC][NMeV]V[Dil][Dolaproine]-X1) |  |  | also cleaved by cathepsin S | moderate cross-reactivity toward other cathepsins | 
ADC 300: sacituzumab (anti-TROP-2) ADC with pan-cathepsin Val-Cit linker, PABC spacer and MMAE payload |  | 1.5% |  |  | 
Cy5-PEG(4)-Met(O2)-Cit-NptGly-Glu(Me)-AOMK [OG-234] |  |  |  |  | kobs/[I] Cath S (Cathepsin S [3]; Cy5- and BODIPY-labeled probes): 253,000 M^-1s^-1; Selectivity S to B (Cathepsin S [3]; calculated from kobs/[I], cathepsin S over cathepsin B): 23; Selectivity S to L (Cathepsin S [3]; calculated from kobs/[I], cathepsin S over cathepsin L): 46; Selectivity S to V (Cathepsin S [3]; calculated from kobs/[I], cathepsin S over cathepsin V): 32; kobs/[I] Cath L (Cathepsin L): 5,530 M^-1s^-1; kobs/[I] Cath V (Cathepsin V): 7,900 M^-1s^-1; detection of active cathepsin S in living cells [4]: able to detect active cathepsin S as soon as upon 3 h incubation; kobs/[I] Cath B (Cathepsin B [5]): 11,200 M^-1s^-1; off-target labeling of cathepsin B in cells (Cathepsin B [6]): minor off-target labeling of cathepsin B
